Data as given in paper PMC5805629 (Journal of medicinal chemistry, 2018).

How the values were obtained:
human P-gp [1] = molecular target: T1, human P-gp (Homo sapiens, UniProt P08183); conditions: read-out: [125I]-IAAP labeling IC50; inhibition of photolabeling of P-gp; cited from earlier work
[2] = system: SW620/Ad300 drug-resistant cell lines; conditions: cited from earlier work
[3] = system: SW620/Ad300 drug-resistant cell lines; conditions: 10 μM in vitro; cited from earlier work
tumor = conditions: mice; no apparent side-effects; cited from earlier work
human P-gp [4] = molecular target: T1, human P-gp; conditions: 20 min, 2.5 µM, pH 6.8
CYP3A4 = CYP3A4 (Homo sapiens, UniProt P08684); experiment: In vitro CYP3A4 enzyme inhibition assay; format: in vitro ADME; conditions: 25 μM
CYP3A4, sequence (P08684 whole entry): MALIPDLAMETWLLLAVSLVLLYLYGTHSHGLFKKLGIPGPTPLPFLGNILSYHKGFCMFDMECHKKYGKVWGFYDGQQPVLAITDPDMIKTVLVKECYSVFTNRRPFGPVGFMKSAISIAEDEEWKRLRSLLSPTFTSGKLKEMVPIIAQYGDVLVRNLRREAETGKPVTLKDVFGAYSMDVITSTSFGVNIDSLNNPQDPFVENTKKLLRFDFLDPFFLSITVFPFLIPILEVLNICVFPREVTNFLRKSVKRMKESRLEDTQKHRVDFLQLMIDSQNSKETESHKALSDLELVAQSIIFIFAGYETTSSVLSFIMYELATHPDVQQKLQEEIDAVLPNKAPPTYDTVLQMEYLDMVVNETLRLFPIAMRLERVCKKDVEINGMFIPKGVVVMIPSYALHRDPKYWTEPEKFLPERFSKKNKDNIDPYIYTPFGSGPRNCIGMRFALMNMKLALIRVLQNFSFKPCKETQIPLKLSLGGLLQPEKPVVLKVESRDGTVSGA

HEK 293-pcDNA 3.1 cells = experiment: MDR reversal; format: cell-based; conditions: 72 h, read-out: IC50 ± SD of paclitaxel
MDR reversal = format: cell-based; conditions: human
[5] = system: parental and resistant cell lines; experiment: Preliminary cytotoxicity of reversal compounds treated alone; format: cell-based; conditions: 5 μM concentration

T1 sequence (P08183 whole entry): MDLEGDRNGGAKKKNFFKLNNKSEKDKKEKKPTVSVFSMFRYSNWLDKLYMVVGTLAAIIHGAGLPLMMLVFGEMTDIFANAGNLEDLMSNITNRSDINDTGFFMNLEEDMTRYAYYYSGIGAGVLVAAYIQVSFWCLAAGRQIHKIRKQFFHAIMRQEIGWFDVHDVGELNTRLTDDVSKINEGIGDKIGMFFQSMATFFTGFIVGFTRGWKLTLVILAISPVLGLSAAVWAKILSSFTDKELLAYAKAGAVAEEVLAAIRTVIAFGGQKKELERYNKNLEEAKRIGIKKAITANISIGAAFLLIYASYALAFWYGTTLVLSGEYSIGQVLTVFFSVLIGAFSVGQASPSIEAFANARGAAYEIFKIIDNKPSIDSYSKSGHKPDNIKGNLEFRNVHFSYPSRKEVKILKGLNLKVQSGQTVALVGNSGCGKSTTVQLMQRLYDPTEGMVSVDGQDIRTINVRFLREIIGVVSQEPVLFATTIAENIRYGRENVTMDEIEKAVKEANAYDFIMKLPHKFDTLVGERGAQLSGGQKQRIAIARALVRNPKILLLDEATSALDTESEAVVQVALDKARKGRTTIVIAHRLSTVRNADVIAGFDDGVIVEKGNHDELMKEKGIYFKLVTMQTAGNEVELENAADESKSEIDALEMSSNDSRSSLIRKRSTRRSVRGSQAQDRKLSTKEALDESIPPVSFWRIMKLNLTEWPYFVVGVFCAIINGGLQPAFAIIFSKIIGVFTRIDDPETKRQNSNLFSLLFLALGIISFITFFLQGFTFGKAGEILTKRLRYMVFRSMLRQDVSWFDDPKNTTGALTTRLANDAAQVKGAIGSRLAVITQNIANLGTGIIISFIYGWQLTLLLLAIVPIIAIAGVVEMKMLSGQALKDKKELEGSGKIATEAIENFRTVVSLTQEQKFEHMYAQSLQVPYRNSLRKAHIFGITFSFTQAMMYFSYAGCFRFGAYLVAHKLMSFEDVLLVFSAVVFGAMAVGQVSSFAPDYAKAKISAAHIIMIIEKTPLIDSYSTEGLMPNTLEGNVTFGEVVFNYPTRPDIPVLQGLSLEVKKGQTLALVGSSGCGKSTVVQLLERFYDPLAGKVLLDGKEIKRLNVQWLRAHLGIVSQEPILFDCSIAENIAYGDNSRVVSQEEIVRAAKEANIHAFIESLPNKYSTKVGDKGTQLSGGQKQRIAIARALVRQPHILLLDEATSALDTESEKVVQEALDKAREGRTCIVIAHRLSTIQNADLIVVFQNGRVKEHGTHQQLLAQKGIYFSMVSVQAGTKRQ

COc1cc(C(=O)N[C@H](c2nc(C(=O)Nc3ccccc3C(=O)c3ccccc3)cs2)C(C)C)cc(OC)c1OC [Compound 1, (S)-N-(2-benzoylphenyl)-2-(2-methyl-1-(3,4,5-trimethoxybenzamido)propyl)thiazole-4-carboxamide]
IC50 (human P-gp [1]): 720 nM | intracellular paclitaxel concentration [2]: increased intracellular paclitaxel concentration | reversal of resistance to paclitaxel, doxorubicin and vincristine [3]: significant reversal of resistance | tumor volume and tumor weight (tumor): reduced tumor volume and tumor weight

COc1cc(C(=O)N[C@H](c2nc(C(=O)NC3CCNCC3)cs2)C(C)C)cc(OC)c1OC [Compound 42, (S)-2-(2-Methyl-1-(3,4,5-trimethoxybenzamido)propyl)-N-(piperidin-4-yl)thiazole-4-carboxamide]
ATPase activity % Stimulation (human P-gp [4]): 15%

COc1cc(C(=O)N[C@H](c2nc(C(=O)NCC3CCC(F)(F)CC3)cs2)C(C)C)cc(OC)c1OC [Compound 63, (S)-N-((4,4-Difluorocyclohexyl)methyl)-2-(2-methyl-1-(3,4,5-trimethoxybenzamido)propyl)thiazole-4-carboxamide]
ATPase activity % Stimulation (human P-gp [4]): 21%

COc1cc(C(=O)NC(Cc2ccccc2)c2nc(C(=O)NC3CCC(F)(F)CC3)cs2)cc(OC)c1OC (stereo not shown) [Compound 109, N-(4,4-Difluorocyclohexyl)-2-(2-phenyl-1-(3,4,5-trimethoxybenzamido)ethyl)thiazole-4-carboxamide]
CYP3A4 Inhibition (%) (CYP3A4): did not inhibit

CC(=O)O[C@H]1C(=O)[C@@]2(C)[C@H]([C@H](OC(=O)c3ccccc3)[C@]3(O)C[C@H](OC(=O)[C@H](O)[C@@H](NC(=O)c4ccccc4)c4ccccc4)C(C)=C1C3(C)C)[C@]1(OC(C)=O)CO[C@@H]1C[C@@H]2O [Paclitaxel, paclitaxel]
IC50 (HEK 293-pcDNA 3.1 cells): 71 ± 15 nM | IC50 at 72 h (MDR reversal): 2050 ± 87 nM

O[C@@H](COc1cccc2ncccc12)CN1CCN([C@@H]2c3ccccc3[C@@H]3[C@H](c4ccccc42)C3(F)F)CC1 [Zosuquidar, zosuquidar]
cytotoxicity [5]: cytotoxic
